Laboratory results as given in patent US20170107257A1, “CYCLIC APELIN ANALOGS” (LANTHIOPEP B.V., priority 2014, published 2017).
Numbered stars: 1 amine (or outer) side, 2 acyl side, 3 side chain; on linkers, the order of the positions; unused ones are H or OH. Bridge positions count the residues as written; N and C are the ends. Square brackets hold non-standard residues; d marks the D form. Ends that are not written are not given here. Peptide text beside a SMILES is read from it. ξ: configuration not given here. ξAbu(3ξ-yl) = CC(C(N[*:1])C(=O)[*:2])[*:3]; pGlu = O=C1CC[C@@H](C(=O)O)N1; ξC = NC(CS)C(=O)O

Legend:
[1] = biological target: T1, hAPJ (Homo sapiens, UniProt P35414); test: beta arrestin assay (DiscoverX); type: cell-based; conditions: for Ratio β-arrestin/cAMP: ratio of β-arrestin EC50 to cAMP EC50; for EC50: read-out: β-arrestin EC50
T1 sequence (P35414 1-380): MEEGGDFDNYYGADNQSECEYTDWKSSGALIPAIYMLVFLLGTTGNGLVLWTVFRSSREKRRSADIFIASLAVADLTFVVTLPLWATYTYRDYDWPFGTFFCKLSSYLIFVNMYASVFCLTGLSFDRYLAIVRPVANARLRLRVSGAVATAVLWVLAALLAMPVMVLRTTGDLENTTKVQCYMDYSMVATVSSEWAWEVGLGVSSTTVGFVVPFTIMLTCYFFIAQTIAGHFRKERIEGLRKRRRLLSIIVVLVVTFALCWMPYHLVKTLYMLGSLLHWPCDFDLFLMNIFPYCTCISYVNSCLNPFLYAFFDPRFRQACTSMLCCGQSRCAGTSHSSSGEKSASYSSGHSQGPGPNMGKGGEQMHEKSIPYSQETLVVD
Description: (§1) (Me)lan apelin variants were tested with cAMP and beta arrestin assays from the company DiscoverX.

[2] = Stability of apelin analogs in rat plasma; type: in vitro ADME; conditions: rat, plasma, pH 7.4
Description: Stability of apelin analogs in rat plasma. […] Samples were quenched by acidifying to final concentration of 5% TFA. Samples were analyzed on HPLC. Peak heights were plotted as relative to the initial peak heights.

[3] = biological target: T1, hAPJ; test: cAMP assay (DiscoverX); type: cell-based
Description: as §1

Compound	Ratio β-arrestin/cAMP [1]	half-life at 0.1 mg/ml [2]	activity in Example 8 [3]	EC50 [3]	EC50 [1]
CSCC[C@@H]1NC(=O)[C@@H]2CCCN2C(=O)CNC(=O)C(NC(=O)[C@H](Cc2c[nH]cn2)NC(=O)[C@H](C)NC(=O)[C@H](CC(C)C)NC(=O)[C@H](CCCNC(=N)N)NC(=O)[C@@H]2CCCN2C(=O)[C@H](CCCNC(=N)N)NC(=O)[C@@H](N)CCC(N)=O)CSCC(C(=O)N[C@@H](Cc2ccccc2)C(=O)O)NC1=O (stereo partly shown) [ApeT8cS]			significant activity		
CSCC[C@H](NC(=O)[C@@H]1CCCN1C(=O)CNC(=O)C1CSC(C)C(NC(=O)[C@H](CC(C)C)NC(=O)[C@H](CCCNC(=N)N)NC(=O)[C@@H]2CCCN2C(=O)[C@H](CCCNC(=N)N)NC(=O)[C@@H]2CCC(=O)N2)C(=O)N[C@@H](Cc2c[nH]cn2)C(=O)N[C@@H](CCCCN)C(=O)N1)C(=O)N1CCC[C@H]1C(=O)N[C@@H](Cc1ccccc1)C(N)=O (stereo partly shown) [amidated pEApeM6, pERPRLmeLanHKmeLanGPMPF-NH2] ([pGlu]RPRL[ξAbu(3ξ-yl)]HK[ξC]GPMPF-NH2; thioether 6-9)	0.75			80 nM	60 nM
CSCC[C@H](NC(=O)[C@@H]1CCCN1C(=O)CNC(=O)[C@H](CCCCN)NC(=O)C1CSC(C)C(NC(=O)[C@@H]2CCCN2C(=O)[C@H](CCCNC(=N)N)NC(=O)[C@@H]2CCC(=O)N2)C(=O)N[C@@H](CCCNC(=N)N)C(=O)N[C@@H](CC(C)C)C(=O)N[C@@H](C)C(=O)N1)C(=O)N1CCC[C@H]1C(=O)N[C@@H](Cc1ccccc1)C(=O)O (stereo partly shown) [pEApeI3c, pERPmeLanRLAmeLanKGPMPF] ([pGlu]RP[ξAbu(3ξ-yl)]RLA[ξC]KGPMPF-OH; thioether 4-8; C-terminus assumed)	167	2 h		17 nM	2840 nM
CSCC[C@H](NC(=O)[C@@H]1CCCN1C(=O)CNC(=O)[C@H](CCCCN)NC(=O)C1CSC(C)C(NC(=O)[C@H](CCCNC(=N)N)NC(=O)[C@@H]2CCCN2C(=O)[C@H](CCCNC(=N)N)NC(=O)[C@@H]2CCC(=O)N2)C(=O)N[C@@H](CC(C)C)C(=O)N[C@@H](C)C(=O)N1)C(=O)N1CCC[C@H]1C(=O)N[C@@H](Cc1ccccc1)C(=O)O (stereo partly shown) [pEApeI4a, pERPRmeLanLAmeLanKGPMPF] ([pGlu]RPR[ξAbu(3ξ-yl)]LA[ξC]KGPMPF-OH; thioether 5-8; C-terminus assumed)	87	2 h		12.8 nM	1110 nM
CSCC[C@H](NC(=O)[C@@H]1CCCN1C(=O)[C@@H]1CSCC(NC(=O)[C@H](CC(C)C)NC(=O)[C@H](CCCNC(=N)N)NC(=O)[C@@H]2CCCN2C(=O)[C@H](CCCNC(=N)N)NC(=O)[C@@H]2CCC(=O)N2)C(=O)N[C@@H](C)C(=O)N[C@@H](Cc2c[nH]cn2)C(=O)N[C@@H](CCCCN)C(=O)N1)C(=O)N1CCC[C@H]1C(=O)N[C@@H](Cc1ccccc1)C(=O)O (stereo partly shown) [pEApeI5cS I, pERPRLLanAHKLanPMPF]		3 h			
CSCC[C@H](NC(=O)[C@@H]1CCCN1C(=O)CNC(=O)[C@@H]1CSC(C)C(NC(=O)[C@H](CC(C)C)NC(=O)[C@H](CCCNC(=N)N)NC(=O)[C@@H]2CCCN2C(=O)[C@H](CCCNC(=N)N)NC(=O)[C@@H]2CCC(=O)N2)C(=O)N[C@@H](Cc2c[nH]cn2)C(=O)N[C@@H](CCCCN)C(=O)N1)C(=O)N1CCC[C@H]1C(=O)N[C@@H](Cc1ccccc1)C(=O)O (stereo partly shown) [pEApeM6, pERPRLmeLanHKmeLanGPMPF] ([pGlu]RPRL[ξAbu(3ξ-yl)]HKCGPMPF-OH; thioether 6-9)		8 h			
CSCC[C@H](NC(=O)[C@@H]1CCCN1C(=O)[C@@H]1CSC(C)C(NC(=O)[C@H](CC(C)C)NC(=O)[C@H](CCCNC(=N)N)NC(=O)[C@@H]2CCCN2C(=O)[C@H](CCCNC(=N)N)NC(=O)[C@@H]2CCC(=O)N2)C(=O)N[C@@H](Cc2c[nH]cn2)C(=O)N[C@@H](CCCCN)C(=O)NCC(=O)N1)C(=O)N1CCC[C@H]1C(=O)N[C@@H](Cc1ccccc1)C(=O)O (stereo partly shown) [pEApeM7, pERPRLmeLanHKGmeLanPMPF] ([pGlu]RPRL[ξAbu(3ξ-yl)]HKGCPMPF-OH; thioether 6-10)		15 h			

Other lines, results leading:

Ratio β-arrestin/cAMP [1]	half-life at 0.1 mg/ml [2]	activity in Example 8 [3]	EC50 [3]	EC50 [1]	Compound
200					CC(C)C[C@H](NC(=O)[C@H](CCCNC(=N)N)NC(=O)[C@@H]1CCCN1C(=O)[C@H](CCCNC(=N)N)NC(=O)[C@@H]1CCC(=O)N1)C(=O)NC1CSCC(C(=O)N2CCC[C@H]2C(=O)N[C@@H](Cc2ccccc2)C(=O)O)NC(=O)[C@@H]2CCCN2C(=O)CNC(=O)[C@H](CCCCN)NC(=O)[C@H](Cc2c[nH]cn2)NC1=O (single isomer, unassigned) [pEApeM9S II, pERPRLLanHKGPLanPF]
50	> 24 h				CSCC[C@@H]1NC(=O)[C@@H]2CCCN2C(=O)CNC(=O)[C@H](CCCCN)NC(=O)[C@H](Cc2c[nH]cn2)NC(=O)C(NC(=O)[C@H](CC(C)C)NC(=O)[C@H](CCCNC(=N)N)NC(=O)[C@@H]2CCCN2C(=O)[C@H](CCCNC(=N)N)NC(=O)[C@@H]2CCC(=O)N2)CSCC(C(=O)N2CCC[C@H]2C(=O)N[C@@H](Cc2ccccc2)C(=O)O)NC1=O (single isomer, unassigned) [pEApeM27S I, pERPRLLanHKGPMLanPF]
	3 h				CSCC[C@H](NC(=O)[C@@H]1CSCC(NC(=O)[C@H](CC(C)C)NC(=O)[C@H](CCCNC(=N)N)NC(=O)[C@@H]2CCCN2C(=O)[C@H](CCCNC(=N)N)NC(=O)[C@@H]2CCC(=O)N2)C(=O)N[C@@H](Cc2c[nH]cn2)C(=O)N[C@@H](CCCCN)C(=O)NCC(=O)N2CCC[C@H]2C(=O)N1)C(=O)N1CCC[C@H]1C(=O)N[C@@H](Cc1ccccc1)C(=O)O (stereo partly shown) [pEApeM12S, pERPRLLanHKGPLanMPF]
	> 24 h				CSCC[C@@H]1NC(=O)[C@@H]2CCCN2C(=O)CNC(=O)[C@H](CCCCN)NC(=O)[C@H](Cc2c[nH]cn2)NC(=O)C(NC(=O)[C@H](CC(C)C)NC(=O)[C@H](CCCNC(=N)N)NC(=O)[C@@H]2CCCN2C(=O)[C@H](CCCNC(=N)N)NC(=O)[C@@H]2CCC(=O)N2)CSC[C@@H](C(=O)N[C@@H](Cc2ccccc2)C(=O)O)NC1=O (stereo partly shown) [pEApeM26S I, pERPRLLanHKGPMLanF]
	7 h				CSCC[C@H](NC(=O)[C@@H]1CCCN1C(=O)CNC(=O)[C@@H]1CSC(C)C(NC(=O)[C@H](CC(C)C)NC(=O)[C@H](CCCNC(=N)N)NC(=O)[C@@H]2CCCN2C(=O)[C@H](CCCNC(=N)N)NC(=O)[C@@H]2CCC(=O)N2)C(=O)N[C@@H](Cc2c[nH]cn2)C(=O)N[C@@H](CCCCN)C(=O)N1)C(=O)N1CCC[C@H]1C(=O)N[C@@H](C)C(=O)O (stereo partly shown) [pERPRLmeLanHKmeLanGPMPA] ([pGlu]RPRL[ξAbu(3ξ-yl)]HKCGPMPA-OH; thioether 6-9)
	10 h				CSCC[C@H](NC(=O)[C@@H]1CCCN1C(=O)CNC(=O)[C@@H]1CSC(C)C(NC(=O)[C@H](CC(C)C)NC(=O)[C@H](CCCNC(=N)N)NC(=O)[C@@H]2CCCN2C(=O)[C@H](CCCNC(=N)N)NC(=O)[C@@H]2CCC(=O)N2)C(=O)N[C@@H](Cc2c[nH]cn2)C(=O)N[C@@H](CCCCN)C(=O)N1)C(=O)N[C@H](C(=O)N[C@@H](Cc1ccccc1)C(=O)O)C(C)C (stereo partly shown) [pERPRLmeLanHKmeLanGPMVF] ([pGlu]RPRL[ξAbu(3ξ-yl)]HKCGPMVF-OH; thioether 6-9)
20			0.6 nM	12 nM	QRPRLAHKGPMPF [reference compound]
